# Source: patent US6994981B2, “Modulators of paraptosis and related methods” (The Buck Institute, priority 2002, dated 2006)
# Assays:
# [1] = tested on: striatal, cortical, and hippocampal neurons; test: SP-induced cell death in primary striatal, cortical and hippocampal neurons, trypan blue viability and staining; type: cell-based, rat
# Method: Rat neuronal primary cell cultures were also used to assay for inducers and inhibitors of paraptosis. Briefly, primary striatal, cortical and hippocampal cultures were prepared from 17-day-old Sprague-Dawley rat embryos (B&K). The tissue was dissected, minced and trypsinized for five minutes using 0.25% trypsin (Cell Grow). After the addition of 10% horse serum (Life Technologies) to inhibit the trypsin, the cell suspension was triturated 15–20 times with a 10 ml syringe and centrifuged for five minutes at 800×g. The pellet was resuspended in MEM-PAK (UCSF Cell Culture facility), supplemented with 2.02 gm glucose, 2 mM GLUTAMAX™ (Life Technologies) and penicillin/streptomycin (100 U/ml). The suspension was filtered through a […] cell strainer and the final culture medium contained 5% horse serum. Subsequently, 3-4×10^5 cells per Cm^2 were seeded onto either poly-D-lysine precoated 8-well chamber slides (Becton-Dickson Labware) or 96 well plates precoated with […] of poly-D-lysine (Sigma) in water. After 30 minutes of incubation time, unattached cells were removed together with the medium and replaced with glucose enriched MEM-PAK plus 5% horse serum. The cultures were then incubated at 37° C. in 95% air 5% carbon dioxide with 95% humidity. Cultures were used for experiments between day 1 and day 7 when glial contamination was at a minimum.
# Primary neuronal cells were prepared as described in Example I. SP (SIGMA) at a concentration of 0.1 nM–100 μM was added 24–48 hrs after seeding, in the presence of 2.5% horse serum. When the cultures were maintained for more than 5 days, 10 μM cytosine arabinoside was added for 24 hours, beginning 3 days after plating the cells. Viability was quantified by trypan blue staining of the total cell population.
# The following compounds were added at the same time as SP in the indicated experiments: 5 nM L-732, 138; 1 nM L-733,060; 1 μg/ml Actinomycin D or 1 μg/ml Cycloheximide. All of these compounds were obtained from SIGMA. The caspase inhibitors zVAD.fmk and BAF were added at 50 μM and obtained from Enzyme System Products, Livermore, Calif.
# Either neuronal primary cultures or human embryonic kidney 293T cells were fixed with 4% paraformaldehyde and stained with 0.5 μg/ml DAPI (Molecular Probes) or Hoechst(SIGMA). […]
# The protein kinase inhibitors were added 30 min before SP exposure at the following concentrations: 10 μM Rp-8-Br-cAMPS (adenosin 3′,5′-cyclic monophosphorothioate, 8-bromo-, Rp-isomer, sodium salt) which is a PKA inhibitor; 50 nM Calphostin C, which is a PKC inhibitor; 10 μM PD 98059 which is a MAPKK (MEK) inhibitor. These compounds were obtained from Calbiochem. Viability was quantified by trypan blue staining of the total cell population.
# [2] = tested on: ERK-1/2; test: Western blot of ERK-1/2 phosphorylation in striatal neurons; type: cell-based, rat; settings: after 10–30 min of SP stimulation; total ERK-1/2 unchanged
# Method: For the transfected 293T cells, cells were washed with cold PBS after incubation with SP the time indicate and homogenized on lysis buffer (150 mM NaCl, 1% Triton X-100, 50 mM Tris HCL pH8.0). Cytoplasmic extracts were collected after 10 min centrifugation at 14,000 rcf. Total amount of protein was quantified by Bradford assay and electrophoresis of equal amounts of total protein was performed on SDS-polyacrylamide gels. Separated proteins were transferred to polyvinylidene fluoride membranes at 4° C. for Western blot analysis. Membranes were probed with a 1:1000 dilution of anti-ERK-1/2 or anti phospho-ERK-1/2 (BioSource). The blots were incubated in a horseradish peroxidase coupled secondary antibody for 1 h followed by enhanced chemiluminescence detection of the proteins with […]™ ECL detection (Amersham, Arlington Heights, Ill.). For striatal neurons, total ERK-1/2 was immunoprecipitated using superparamagnetic Microbeads conjugated to protein A, following manufacture's instructions (MACS, Miltenyi Biotec), and then developed by Western blot against either anti-ERK-1/2 or anti phospho-ERK-1/2.
# [3] = tested on: cytochrome c release; settings: cell-free system of apoptosis; cited from earlier work
substance,measurement,setting,value
"SP: eleven amino acid neurotransmitter of the tachykinin family, ligand of NK1R",sensitivity of neurons to SP,[1]; 48 hours after exposure,sensitive to micromolar concentrations
same,effect of SP isomer on neuronal cell death,[1]; L or D isomer,induced cell death
same,sensitivity of neurons to SP,"[1]; seven days after exposure, SP added only once",sensitive to nanomolar concentrations
same,amount of phosphorylated ERK-1/2,[2],increase
same,cytochrome c release,[3],can induce cytochrome c release
